Measured values reported in ChEMBL document CHEMBL1926646 (Bioorg Med Chem, 2011).
Calls of active or inactive are those of the source. No cut-off for these calls is given here.

Assays:
Dipeptidyl peptidase 8 = Dipeptidyl peptidase 8 (Homo sapiens, UniProt Q6V1X1); test: Inhibition of human recombinant DPP-8 expressed in Sf9 cells using H-Gly-Pro-AMC as substrate preincubated for 30 mins before substrate addition measured after 20 mins by fluorescence assay
[1] = Oral bioavailability in Beagle dog at 0.5 mg/kg; type: ADME, organism-based, Canis lupus familiaris; details: in vivo
[2] = Plasma protein binding in human at 2000 ng/ml after 0.5 hrs by LC-MS/MS analysis; type: ADME, cell-free; details: read-out: PPB (converted)
Rattus norvegicus [3] = test: Inhibition of plasma DPP-4 activity in Wistar/ST rat at 10 mg/kg, po pretreated 30 mins before glucose challenge measured within 30 mins; type: functional
[4] = Plasma protein binding in rat at 20 ng/ml after 0.5 hrs by LC-MS/MS analysis; type: ADME, cell-free; details: read-out: PPB (converted)
[5] = Tmax in Beagle dog at 0.5 mg/kg, po; type: ADME, organism-based, Canis lupus familiaris; parameters: dose 0.5 mg/kg, route oral; details: in vivo
[6] = Cmax in Sprague-Dawley rat at 3 mg/kg, po; type: ADME, organism-based; parameters: dose 3 mg/kg, route oral; details: in vivo
[7] = Plasma protein binding in human at 20 ng/ml after 0.5 hrs by LC-MS/MS analysis; type: ADME, cell-free; details: read-out: PPB (converted)
[8] = Total clearance in Sprague-Dawley rat at 3 mg/kg, iv; type: ADME, organism-based; parameters: dose 3 mg/kg, route intravenous; details: in vivo
[9] = Oral bioavailability in Sprague-Dawley rat at 10 mg/kg; type: ADME, organism-based; details: in vivo
Rattus norvegicus [10] = test: Inhibition of plasma DPP-4 activity in Wistar/ST rat at 3 mg/kg, po pretreated 30 mins before glucose challenge measured for 2 hrs during oral glucose tolerance test; type: functional
Rattus norvegicus [11] = test: AUC in Sprague-Dawley rat at 10 mg/kg, po; type: ADME, organism-based, Plasma; parameters: dose 10 mg/kg, route oral; details: in vivo
Canis familiaris [12] = test: Volume of distribution at steady state in Beagle dog at 0.2 mg/kg, iv; type: ADME, organism-based, Canis lupus familiaris; parameters: dose 0.2 mg/kg, route intravenous; details: in vivo
[13] = Cmax in Beagle dog at 0.5 mg/kg, po; type: ADME, organism-based, Canis lupus familiaris; parameters: dose 0.5 mg/kg, route oral; details: in vivo
[14] = Tmax in Sprague-Dawley rat at 10 mg/kg, po; type: ADME, organism-based; parameters: dose 10 mg/kg, route oral; details: in vivo
[15] = Drug level in Sprague-Dawley rat plasma at 3 mg/kg at Tmax; type: ADME, organism-based; parameters: dose 3 mg/kg; details: read-out: Drug uptake
[16] = Terminal half life in Sprague-Dawley rat at 10 mg/kg, po; type: ADME, organism-based; parameters: dose 10 mg/kg, route oral; details: in vivo, read-out: beta t1/2 (converted)
Rattus norvegicus [17] = test: Antidiabetic activity in Wistar/ST rat plasma assessed as reduction in glucose AUC (0 to 60 mins) at 10 mg/kg, po pretreated 30 mins before glucose challenge measured for 2 hrs by oral glucose tolerance test; type: functional, organism-based; parameters: dose 10 mg/kg
Rattus norvegicus [18] = test: Inhibition of plasma DPP-4 activity in orally dosed Wistar/ST rat pretreated 30 mins before glucose challenge measured for 2 hrs during oral glucose tolerance test; type: functional, organism-based
[19] = Cmax in Sprague-Dawley rat at 10 mg/kg, po; type: ADME, organism-based; parameters: dose 10 mg/kg, route oral; details: in vivo
[20] = Total clearance in Beagle dog at 0.2 mg/kg, iv; type: ADME, organism-based, Canis lupus familiaris; parameters: dose 0.2 mg/kg, route intravenous; details: in vivo
[21] = Plasma protein binding in dog at 2000 ng/ml after 0.5 hrs by LC-MS/MS analysis; type: ADME, cell-free, Canis lupus familiaris; details: read-out: PPB (converted)
[22] = Plasma protein binding in dog at 20 ng/ml after 0.5 hrs by LC-MS/MS analysis; type: ADME, cell-free, Canis lupus familiaris; details: read-out: PPB (converted)
[23] = Tmax in Sprague-Dawley rat at 3 mg/kg, po; type: ADME, organism-based; parameters: dose 3 mg/kg, route oral; details: in vivo
[24] = Terminal half life in Beagle dog at 0.5 mg/kg, po; type: ADME, organism-based, Canis lupus familiaris; parameters: dose 0.5 mg/kg, route oral; details: in vivo, read-out: beta t1/2 (converted)
[25] = Plasma protein binding in rat at 2000 ng/ml after 0.5 hrs by LC-MS/MS analysis; type: ADME, cell-free; details: read-out: PPB (converted)
Rattus norvegicus [26] = test: Volume of distribution at steady state in Sprague-Dawley rat at 3 mg/kg, iv; type: ADME, organism-based; parameters: dose 3 mg/kg, route intravenous; details: in vivo
Canis familiaris [27] = test: AUC in Beagle dog at 0.5 mg/kg, po; type: ADME, organism-based, Canis lupus familiaris, Plasma; parameters: dose 0.5 mg/kg, route oral; details: in vivo

Chain of Dipeptidyl peptidase 8 (Q6V1X1 whole entry): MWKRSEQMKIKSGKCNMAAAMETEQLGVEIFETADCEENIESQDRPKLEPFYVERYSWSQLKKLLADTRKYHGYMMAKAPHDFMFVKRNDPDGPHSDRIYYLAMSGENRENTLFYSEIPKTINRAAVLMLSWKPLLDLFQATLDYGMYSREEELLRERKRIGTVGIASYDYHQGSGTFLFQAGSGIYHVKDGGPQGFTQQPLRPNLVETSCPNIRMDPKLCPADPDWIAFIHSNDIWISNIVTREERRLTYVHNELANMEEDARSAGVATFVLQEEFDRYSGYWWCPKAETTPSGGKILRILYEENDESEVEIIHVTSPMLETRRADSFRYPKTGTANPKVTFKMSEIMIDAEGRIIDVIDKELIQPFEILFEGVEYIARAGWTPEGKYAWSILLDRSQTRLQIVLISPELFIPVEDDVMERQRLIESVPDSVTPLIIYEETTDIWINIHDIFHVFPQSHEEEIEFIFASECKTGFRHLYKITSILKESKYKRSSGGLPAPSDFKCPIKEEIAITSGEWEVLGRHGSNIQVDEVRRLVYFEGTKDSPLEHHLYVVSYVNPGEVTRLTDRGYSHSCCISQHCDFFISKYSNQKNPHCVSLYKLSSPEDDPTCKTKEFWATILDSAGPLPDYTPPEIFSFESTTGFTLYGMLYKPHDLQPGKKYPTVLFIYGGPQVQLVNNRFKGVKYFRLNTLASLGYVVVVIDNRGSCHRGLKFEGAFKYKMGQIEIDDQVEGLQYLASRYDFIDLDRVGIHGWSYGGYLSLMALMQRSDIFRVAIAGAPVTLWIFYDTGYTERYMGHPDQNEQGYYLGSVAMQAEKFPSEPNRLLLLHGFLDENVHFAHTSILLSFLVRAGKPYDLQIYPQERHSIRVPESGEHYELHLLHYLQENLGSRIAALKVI

SMILES: Cc1cc2ncc(C(=O)NCC(C)(C)NCC(=O)N3CCC[C@H]3C#N)c(C(F)(F)F)n2n1
- IC50 (Dipeptidyl peptidase 8): > 100 µM

SMILES: Cc1c(C(=O)NCC(C)(C)NCC(=O)N2CCC[C@H]2C#N)cnc2cc(C(C)(C)C)nn12
- IC50 (Dipeptidyl peptidase 8): > 100 µM

SMILES: Cc1cc2ncc(C(=O)NCC(C)(C)NCC(=O)N3CCC[C@H]3C#N)c(C)n2n1.Cl
- bioavailability [1]: 98%
- fraction unbound at 0.5 h, 2000 ng/ml [2]: 0.784
- inhibition in vivo at 10 mg/kg (Rattus norvegicus [3]): 90%
- fraction unbound at 0.5 h, 20 ng/ml [4]: 0.779
- Tmax [5]: 1 h
- Cmax [6]: 68 ng/mL
- fraction unbound at 0.5 h, 20 ng/ml [7]: 0.811
- clearance [8]: 37.2 mL/min/kg
- bioavailability [9]: 27%
- inhibition in vivo at 3 mg/kg (Rattus norvegicus [10]): 60%
- AUC (Rattus norvegicus [11]): 1110 ng·h/mL
- Vdss (Canis familiaris [12]): 0.75 L/kg
- Cmax [13]: 282 ng/mL
- Tmax [14]: 0.25 h
- Cmax [15]: 54 nM
- half-life [16]: 1.9 h
- Activity (Rattus norvegicus [17]): Active
- inhibition (Rattus norvegicus [18]): Dose-dependent effect
- Cmax [19]: 747 ng/mL
- clearance [20]: 10.3 mL/min/kg
- fraction unbound at 0.5 h, 2000 ng/ml [21]: 0.801
- fraction unbound at 0.5 h, 20 ng/ml [22]: 0.775
- Tmax [23]: 0.25 h
- half-life [24]: 1.3 h
- fraction unbound at 0.5 h, 2000 ng/ml [25]: 0.821
- Vdss (Rattus norvegicus [26]): 1.61 L/kg
- AUC (Canis familiaris [27]): 6390 ng·h/mL

SMILES: Cc1nc2cc(C(C)(C)C)nn2c(C)c1C(=O)NCC(C)(C)NCC(=O)N1CCC[C@H]1C#N
- IC50 (Dipeptidyl peptidase 8): > 100 µM
